Test results reported in patent US20150359771A1, “TREATING PULMONARY CONDITIONS” (priority 2013, published 2015).

Experiments:
[1] = tested on: IL 6; assay: IL 6 secretion from MLEC, direct treatment, ELISA; assay type: cell-based, mouse; details: FIG. 8
Description: (§1) Cells were grown in Dulbecco's modified eagle's medium (DMEM) containing a growth factor supplement (Cell Biologics # M1 166) which included 5% fetal bovine serum (FBS), heparin, EGF, hydrocortisone, L-glutamine and antibiotics at 37° C. in 5% CO2.
(§2) Interleukin 1-β, eotaxin, and interleukin 6 were all measured via enzyme-linked immunosorbent assay using specific antibodies for each cytokine (Abcam, Cambridge, Mass.) and a horseradish peroxidase-based second antibody detection system, with chromogenic detection at 450 nm using a microplate reader (Synergy HT, BioTek Instruments, Winooski, Vt.).
(§3) Following treatment, western blots or ELISA assays were performed on the MLEC to determine the level of various indicators of airway diseases, such as NFκB protein expression, eotaxin secretion, IL1-β secretion, cellular IL6 content or secretion, adiponectin receptor 1 protein expression, and adiponectin receptor 2 protein expression.

[2] = tested on: IL1-β; assay: IL1-β secretion from MLEC, direct treatment, ELISA; assay type: cell-based, mouse; details: theophylline 1 μM, leucine 0.5 mM, resveratrol 200 nM, FIG. 4
From the text: as §2

[3] = tested on: eotaxin; assay: eotaxin secretion from MLEC, direct treatment, ELISA; assay type: cell-based, mouse; details: theophylline 1 μM, leucine 0.5 mM, resveratrol 200 nM, FIG. 5
From the text: as §2

[4] = tested on: IL 6; assay: cellular IL 6 content in MLEC, direct treatment; assay type: cell-based, mouse; details: theophylline 1 μM, leucine 0.5 mM, resveratrol 200 nM, FIG. 7
Description: as §1, §2, §3

[5] = tested on: NFκB; assay: NFκB protein expression in mouse primary lung endothelial cells (MLEC), direct treatment, Western blot; assay type: cell-based; details: theophylline 1 μM, leucine 0.5 mM, resveratrol 200 nM, FIG. 1
[6] = tested on: phospho-NFκB; assay: phospho-NFκB protein expression in MLEC, direct treatment, Western blot; assay type: cell-based, mouse; details: theophylline 1 μM, leucine 0.5 mM, resveratrol 200 nM
Description: as §1
For Western blot, 2 μg (for NFκB) or 4 μg (for phospho-NFκB) of protein from the cell lysate was resolved on 10% Tris/HCL polyacrylamide gels (Criterion precast gel, Bio-Rad Laboratories, Hercules, Calif.), transferred to PVDF membranes (NFκB and phospho-NFκB), incubated in blocking buffer (3% BSA in TBS) and then incubated with primary antibody, washed and incubated with secondary horseradish peroxidase-conjugated antibody.
as §3

Compound | effect on IL 6 secretion (in words) [1] | effect on IL1-β secretion (in words) [2] | effect on eotaxin secretion (in words) [3] | effect on cellular expression of IL 6 [4] | effect on NFκB protein expression relative to control [5] | effect on phospho-NFκB levels [6]
TNFα | significant increase | increase | no significant effect |  |  | 
Cn1c(=O)c2[nH]cnc2n(C)c1=O [theophylline] | no significant independent effect | no significant independent effect | no significant effect | unaffected | no independent effect | no effect
